# From patent publication US4980357A, “Azolidinedione derivatives” (Pfizer Inc., priority 1990, dated 1990)
# Key:
# [1] = tested on: sorbitol accumulation in the lens; assay: inhibition of sorbitol accumulation in the lens of streptozotocinized (diabetic) rats; format: in vivo, rat; details: oral, 0.1-10.0 mg./kg., in words
# Procedure: (§1) The activity of the compounds of the present invention, as agents for the control of chronic diabetic complications, is determined by their ability to successfully pass one or more of the following standard biological or pharmacological tests, viz., (1) measuring their ability to inhibit the enzyme activity of isolated aldose reductase; (2) measuring their ability to reduce or inhibit sorbitol accumulation in the sciatic nerve and lens of acutely streptozotocinized (i.e., diabetic) rats; (3) measuring their ability to reverse already-elevated sorbitol levels in the sciatic nerve and lens of chronic streptozotocin-induced diabetic rats; (4) measuring their ability to prevent or inhibit galactitol formation in the lens of acutely galactosemic rats, and (5) measuring their ability to delay cataract formation and reduce the severity of lens opacities in chronic galactosemic rats.
# (§2) The following spiro-3-heteroazolone compounds of Examples 4A, 4B, 6 and 10A, respectively, were tested for their ability to reduce or inhibit sorbitol accumulation in the sciatic nerve and lens of streptozotocinized (i.e., diabetic) rats by the procedure essentially described in U.S. Pat. No. 3,821,383. In the present study, the amount of sorbitol accumulation in the sciatic nerve and lens of each test animal was measured 27 hours after induction of diabetes. […]
# [2] = tested on: sorbitol accumulation in the sciatic nerve; assay: inhibition of sorbitol accumulation in the sciatic nerve of streptozotocinized (diabetic) rats; format: in vivo, rat; details: oral, 0.1-10.0 mg./kg., in words
# Procedure: as §1, §2
compound,measurement,setting,value
"C[C@@H]1C[C@]2(NC(=O)NC2=O)c2cc(Cl)cnc2O1 [Example 10A, (4'S)(2'R)-6'-chloro-2',3'-dihydro-2'-methyl-spiro-[imidazolidine-4,4'-4'H-pyrano[2,3-b]pyridine]-2,5-dione]",inhibit the formation of sorbitol levels in the lens,[1],to a significantly high degree
same,inhibit the formation of sorbitol levels in the sciatic nerve,[2],to a significantly high degree
